Consider 18 molecules from ChEMBL document CHEMBL3407416, “Discovery of (R)-8-(1-(3,5-difluorophenylamino)ethyl)-N,N-dimethyl-2-morpholino-4-oxo-4H-chromene-6-carboxamide (AZD8186): a potent and selective inhibitor of PI3Kβ and PI3Kδ for the treatment of PTEN-deficient cancers” (J Med Chem, 2015).

Data set [1] has as its target Phosphatidylinositol 4,5-bisphosphate 3-kinase catalytic subunit gamma isoform (Homo sapiens, UniProt P48736). The data set is described as follows: Inhibition of human recombinant PI3Kgamma using PIP2 by Kinase-Glo Plus assay.
Data set [2] addresses T1, Phosphatidylinositol 4,5-bisphosphate 3-kinase catalytic subunit alpha isoform (Homo sapiens, UniProt P42336). Put plainly: Inhibition of PI3Kalpha mutant human BT474 cells assessed as inhibition of Akt phosphorylation at […] after 2 hrs. It counts as cell-based. Particulars: bt-474.
Target sequence in this assay (P42336 whole entry, looked up, canonical isoform): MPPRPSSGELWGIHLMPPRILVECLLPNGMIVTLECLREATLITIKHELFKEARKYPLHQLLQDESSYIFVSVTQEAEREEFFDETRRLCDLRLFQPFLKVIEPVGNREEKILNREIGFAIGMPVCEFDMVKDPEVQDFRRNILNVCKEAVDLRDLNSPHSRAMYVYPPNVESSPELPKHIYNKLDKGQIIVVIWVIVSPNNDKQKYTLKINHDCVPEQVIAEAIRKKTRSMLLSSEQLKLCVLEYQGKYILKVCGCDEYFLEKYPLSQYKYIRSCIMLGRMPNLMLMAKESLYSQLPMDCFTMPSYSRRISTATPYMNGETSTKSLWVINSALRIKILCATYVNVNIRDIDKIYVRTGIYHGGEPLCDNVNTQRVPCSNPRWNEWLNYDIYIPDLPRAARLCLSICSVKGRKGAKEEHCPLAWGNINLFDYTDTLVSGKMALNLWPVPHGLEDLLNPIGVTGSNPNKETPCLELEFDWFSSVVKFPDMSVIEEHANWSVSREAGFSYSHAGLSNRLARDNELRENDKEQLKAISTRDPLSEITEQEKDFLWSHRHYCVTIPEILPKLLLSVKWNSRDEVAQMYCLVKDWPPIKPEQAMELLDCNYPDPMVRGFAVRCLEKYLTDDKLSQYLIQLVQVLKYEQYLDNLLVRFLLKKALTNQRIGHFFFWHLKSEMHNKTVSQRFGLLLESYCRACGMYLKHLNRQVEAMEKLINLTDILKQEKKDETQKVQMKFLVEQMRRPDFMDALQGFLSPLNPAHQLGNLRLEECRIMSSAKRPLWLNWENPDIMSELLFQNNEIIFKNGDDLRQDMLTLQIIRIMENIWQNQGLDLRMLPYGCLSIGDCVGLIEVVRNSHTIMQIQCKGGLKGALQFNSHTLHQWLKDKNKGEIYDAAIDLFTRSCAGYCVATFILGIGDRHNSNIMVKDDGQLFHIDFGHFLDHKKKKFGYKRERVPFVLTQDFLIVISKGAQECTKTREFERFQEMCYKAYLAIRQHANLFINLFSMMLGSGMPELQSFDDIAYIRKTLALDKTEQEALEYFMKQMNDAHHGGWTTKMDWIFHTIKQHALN
The nature of data set [3]: Intrinsic clearance in cryopreserved human hepatocytes measured per 10^6 cells. Particulars: read-out: CLH. The class given is ADME, cell-based, Hepatocyte.
For data set [4], the target named is T2, Phosphatidylinositol 4,5-bisphosphate 3-kinase catalytic subunit delta isoform (Homo sapiens, UniProt O00329).
T2 sequence (O00329 whole entry): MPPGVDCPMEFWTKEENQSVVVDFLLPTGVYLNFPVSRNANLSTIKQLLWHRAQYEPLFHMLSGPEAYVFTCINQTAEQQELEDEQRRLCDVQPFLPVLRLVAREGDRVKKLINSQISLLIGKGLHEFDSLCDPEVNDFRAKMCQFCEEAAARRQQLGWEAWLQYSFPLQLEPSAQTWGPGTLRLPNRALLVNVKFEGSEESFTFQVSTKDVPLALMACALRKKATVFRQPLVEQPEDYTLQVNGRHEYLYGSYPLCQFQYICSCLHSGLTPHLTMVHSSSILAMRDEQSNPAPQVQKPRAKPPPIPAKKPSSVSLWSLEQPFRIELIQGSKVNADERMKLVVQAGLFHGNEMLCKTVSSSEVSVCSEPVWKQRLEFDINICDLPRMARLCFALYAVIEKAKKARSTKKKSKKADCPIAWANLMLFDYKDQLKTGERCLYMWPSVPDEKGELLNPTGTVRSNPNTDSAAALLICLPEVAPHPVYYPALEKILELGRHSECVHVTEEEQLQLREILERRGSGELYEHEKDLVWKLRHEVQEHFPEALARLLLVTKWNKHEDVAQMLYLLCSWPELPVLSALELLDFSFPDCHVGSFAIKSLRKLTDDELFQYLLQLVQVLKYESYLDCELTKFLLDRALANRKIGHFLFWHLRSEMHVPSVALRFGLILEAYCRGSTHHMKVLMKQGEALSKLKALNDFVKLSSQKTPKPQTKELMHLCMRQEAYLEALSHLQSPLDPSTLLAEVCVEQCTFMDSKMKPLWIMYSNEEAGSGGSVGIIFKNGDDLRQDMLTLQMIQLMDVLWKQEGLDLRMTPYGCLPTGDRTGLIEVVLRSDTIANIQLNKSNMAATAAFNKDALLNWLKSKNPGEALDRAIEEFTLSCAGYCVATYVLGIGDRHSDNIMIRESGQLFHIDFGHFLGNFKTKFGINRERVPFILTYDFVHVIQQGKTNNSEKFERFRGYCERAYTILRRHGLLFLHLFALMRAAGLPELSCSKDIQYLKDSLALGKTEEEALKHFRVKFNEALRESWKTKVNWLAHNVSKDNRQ
The data set is described as follows: Inhibition of human recombinant PI3Kdelta using PIP2 by Kinase-Glo Plus assay.

In data set [5] the target is T1, Phosphatidylinositol 4,5-bisphosphate 3-kinase catalytic subunit alpha isoform. Put plainly: Inhibition of human recombinant PI3Kalpha using PIP2 by Kinase-Glo Plus assay.
Target sequence in this assay (P42336 whole entry, canonical isoform): as the sequence (P42336 whole entry, looked up, canonical isoform) above
A short description of data set [6]: Apparent permeability from apical to basolateral side of human Caco2 cells. The class given is ADME, cell-based. Particulars: Caco-2, read-out: permeability.
The nature of data set [7]: Lipophilicity, log D of the compound at pH 7.4 by shake-flask method. The class given is physicochemical. Particulars: buffer.
Data set [8] addresses T3, Phosphatidylinositol 4,5-bisphosphate 3-kinase catalytic subunit beta isoform (Homo sapiens, UniProt P42338). Put plainly: Inhibition of PI3Kbeta in PTEN-null human MDA-MB-468 cells assessed as inhibition of Akt phosphorylation after 2 hrs. The class given is cell-based.
Data set [9] addresses T3, Phosphatidylinositol 4,5-bisphosphate 3-kinase catalytic subunit beta isoform. Put plainly: Inhibition of human recombinant PI3Kbeta using PIP2 by Kinase-Glo Plus assay.

Each structure is given as a SMILES string.

Chain of Phosphatidylinositol 4,5-bisphosphate 3-kinase catalytic subunit gamma isoform (P48736 whole entry, canonical isoform): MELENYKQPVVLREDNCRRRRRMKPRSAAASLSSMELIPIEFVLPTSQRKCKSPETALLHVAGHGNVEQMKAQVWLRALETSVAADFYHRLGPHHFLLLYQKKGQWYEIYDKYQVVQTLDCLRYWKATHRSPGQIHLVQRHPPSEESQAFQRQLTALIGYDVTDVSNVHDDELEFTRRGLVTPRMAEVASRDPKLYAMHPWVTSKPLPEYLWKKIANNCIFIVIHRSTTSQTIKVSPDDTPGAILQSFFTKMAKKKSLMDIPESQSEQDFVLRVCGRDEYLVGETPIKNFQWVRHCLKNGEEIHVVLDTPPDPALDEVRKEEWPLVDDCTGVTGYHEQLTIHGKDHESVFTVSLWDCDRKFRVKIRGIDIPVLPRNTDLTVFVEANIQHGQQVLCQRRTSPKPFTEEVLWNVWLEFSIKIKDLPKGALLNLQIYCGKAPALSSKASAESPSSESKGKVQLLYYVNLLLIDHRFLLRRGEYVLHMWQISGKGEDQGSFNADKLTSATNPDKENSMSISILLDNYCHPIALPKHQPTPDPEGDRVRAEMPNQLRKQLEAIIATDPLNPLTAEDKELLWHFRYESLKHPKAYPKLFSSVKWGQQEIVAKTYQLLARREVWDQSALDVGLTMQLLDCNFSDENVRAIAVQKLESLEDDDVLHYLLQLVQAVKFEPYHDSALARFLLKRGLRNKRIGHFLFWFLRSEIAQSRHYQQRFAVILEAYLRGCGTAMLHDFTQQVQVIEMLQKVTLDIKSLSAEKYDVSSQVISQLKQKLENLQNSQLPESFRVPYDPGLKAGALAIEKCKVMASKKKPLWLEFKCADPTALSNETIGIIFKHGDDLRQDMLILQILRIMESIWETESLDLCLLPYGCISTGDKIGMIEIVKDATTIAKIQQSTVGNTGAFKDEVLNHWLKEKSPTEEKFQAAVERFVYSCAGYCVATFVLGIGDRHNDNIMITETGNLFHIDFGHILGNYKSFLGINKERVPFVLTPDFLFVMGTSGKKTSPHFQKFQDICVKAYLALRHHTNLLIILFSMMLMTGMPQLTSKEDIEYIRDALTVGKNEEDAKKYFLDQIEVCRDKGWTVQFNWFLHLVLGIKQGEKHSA
T3 sequence (P42338 whole entry, canonical isoform): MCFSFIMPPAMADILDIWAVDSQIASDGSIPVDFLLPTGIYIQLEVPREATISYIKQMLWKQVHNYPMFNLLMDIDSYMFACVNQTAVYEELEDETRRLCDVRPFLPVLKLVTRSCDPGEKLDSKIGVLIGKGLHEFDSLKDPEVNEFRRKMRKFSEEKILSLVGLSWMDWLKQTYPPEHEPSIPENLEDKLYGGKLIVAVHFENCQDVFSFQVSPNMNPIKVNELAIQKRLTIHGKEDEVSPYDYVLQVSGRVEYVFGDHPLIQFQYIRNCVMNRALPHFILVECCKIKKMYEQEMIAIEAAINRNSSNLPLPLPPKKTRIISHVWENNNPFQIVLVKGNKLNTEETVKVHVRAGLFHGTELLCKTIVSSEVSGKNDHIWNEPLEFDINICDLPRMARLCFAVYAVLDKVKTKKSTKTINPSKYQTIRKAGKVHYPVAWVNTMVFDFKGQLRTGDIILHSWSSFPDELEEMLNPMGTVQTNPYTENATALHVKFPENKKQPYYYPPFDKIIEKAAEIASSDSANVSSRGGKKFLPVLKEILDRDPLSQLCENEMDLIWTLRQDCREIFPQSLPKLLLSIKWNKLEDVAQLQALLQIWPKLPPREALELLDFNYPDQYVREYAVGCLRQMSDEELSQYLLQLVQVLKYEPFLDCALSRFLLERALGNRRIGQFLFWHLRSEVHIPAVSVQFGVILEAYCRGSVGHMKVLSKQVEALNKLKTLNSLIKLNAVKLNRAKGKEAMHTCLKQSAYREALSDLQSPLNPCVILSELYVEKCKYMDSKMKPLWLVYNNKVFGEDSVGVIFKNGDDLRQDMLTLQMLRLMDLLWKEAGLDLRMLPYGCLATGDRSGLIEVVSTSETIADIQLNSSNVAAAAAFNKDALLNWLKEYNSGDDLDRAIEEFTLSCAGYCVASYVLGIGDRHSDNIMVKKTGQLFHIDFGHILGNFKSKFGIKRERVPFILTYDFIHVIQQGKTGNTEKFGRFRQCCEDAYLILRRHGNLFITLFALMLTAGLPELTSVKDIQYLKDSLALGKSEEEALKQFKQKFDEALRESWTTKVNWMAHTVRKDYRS

On to `C[C@@H](Nc1cc(F)c(F)c(F)c1)c1cc(C(=O)N(C)C)cc2c(=O)cc(N3CCOCC3)oc12`, for which the IC50 is 1.4 µM in data set [1], 1.5 µM in [2], 0.023 µM in data set [4] and 0.11 µM in [5]. In addition, in [3], the hepatocyte CLint was < 4 µL/min/1e6 cells.
For the molecule `C[C@@H](Nc1cc(F)cc(F)c1)c1cc(C(=O)N2CCC2)cc2c(=O)cc(N3CCOCC3)oc12`, the IC50 came to 0.35 µM in data set [1], 0.28 µM in data set [2], 0.02 µM in data set [4] and 0.029 µM in data set [5]. Also, the Papp A→B in [6] was 92 nm/s. Moreover, the logD in [7] was found to be 2.6. Also, the hepatocyte CLint in data set [3] is < 3 µL/min/1e6 cells.
Regarding `CNC(=O)c1cc([C@@H](C)Nc2cc(F)cc(F)c2)c2oc(N3CCOCC3)cc(=O)c2c1`, the IC50 was determined as 0.003 µM in data set [8]; 0.25 µM in data set [1]; 0.96 µM in data set [2]; 0.006 µM in [9]; 0.014 µM in data set [4]; 0.018 µM in data set [5]. Besides, the Papp A→B in [6] was determined as 35 nm/s. This molecule also displayed a logD in data set [7] of 2.8. Also, the hepatocyte CLint in data set [3] was < 3 µL/min/1e6 cells.
As to `C[C@H](Nc1cc(F)cc(F)c1)c1cc(C(=O)N(C)C)cc2c(=O)cc(N3CCO[C@@H](C)C3)oc12`, the IC50 came out at 0.012 µM in [8]; 2.9 µM in [1]; 2.6 µM in data set [2]; 0.009 µM in data set [9]; 0.079 µM in data set [4]; 0.13 µM in data set [5]. Moreover, the pH-dependent lipophilicity (logD) in [7] came to 2.6. The hepatocyte CLint in [3] was < 3 µL/min/1e6 cells.
As to `CN(C)C(=O)c1cc(CN(C)c2cc(F)cc(F)c2)c2oc(N3CCOCC3)cc(=O)c2c1`, the Papp A→B in [6] came out at 360 nm/s. Also, the logD in data set [7] stood at 2.6. In addition, the hepatocyte CLint in data set [3] is < 5 µL/min/1e6 cells.
In the case of `CC(Nc1cccc(F)c1)c1cc(C(=O)N(C)C)cc2c(=O)cc(N3CCOCC3)oc12` (racemic), the IC50 was determined as 0.032 µM in [8]; 2.6 µM in data set [1]; 2.4 µM in data set [2]; 0.012 µM in data set [9]; 0.073 µM in data set [4]; 0.22 µM in data set [5]. For the same molecule, the log distribution coefficient (logD) in data set [7] is 1.9. The hepatocyte CLint in data set [3] was < 3 µL/min/1e6 cells.
As for `CC(Nc1ccc(F)cc1)c1cc(C(=O)N(C)C)cc2c(=O)cc(N3CCOCC3)oc12` (racemic), the IC50 in [8] is 0.128 µM; in data set [1], 13 µM; in data set [2], 12.4 µM; in data set [9], 0.018 µM; in [4], 0.11 µM; in data set [5], 0.81 µM. Also, the logD in data set [7] was 1.5. Besides, in data set [3], the hepatocyte CLint is < 3 µL/min/1e6 cells.
Regarding `CC(Nc1cccc(Cl)c1)c1cc(C(=O)N(C)C)cc2c(=O)cc(N3CCOCC3)oc12` (racemic), the IC50 in [8] was 0.009 µM; in data set [1], 0.7 µM; in [2] it was 0.79 µM; in data set [9] it was 0.01 µM; in [4], 0.073 µM; in data set [5], 0.085 µM. Further, the logD in data set [7] amounted to 2.5. Moreover, the hepatocyte CLint in data set [3] is < 4 µL/min/1e6 cells.
On to `CC(Nc1ccc(F)c(Cl)c1)c1cc(C(=O)N(C)C)cc2c(=O)cc(N3CCOCC3)oc12` (racemic), for which the IC50 in [8] worked out at 0.016 µM; in data set [1] it was 1.8 µM; in [2], 5.5 µM; in data set [9], 0.012 µM; in [4], 0.064 µM; in [5], 0.17 µM. The logD in [7] is 2.4. The hepatocyte CLint in [3] is 8 µL/min/1e6 cells.
With `Cc1cc(F)cc(NC(C)c2cc(C(=O)N(C)C)cc3c(=O)cc(N4CCOCC4)oc23)c1` (racemic), the IC50 in data set [8] came to 0.049 µM; in data set [1] it was 2.2 µM; in data set [2], 2.9 µM; in [9], 0.015 µM; in [4] it was 0.11 µM; in data set [5] it was 0.13 µM. The same molecule had a logD in [7] of 2.2. Besides, the hepatocyte CLint in data set [3] was 6 µL/min/1e6 cells.
In the case of `COc1cc(F)cc(NC(C)c2cc(C(=O)N(C)C)cc3c(=O)cc(N4CCOCC4)oc23)c1` (racemic), the IC50 in data set [8] worked out at 0.015 µM; in [1], 1.6 µM; in [2], 1.7 µM; in data set [9] it was 0.01 µM; in [4], 0.061 µM; in data set [5], 0.16 µM. For the same molecule, the logD in data set [7] came to 1.9. Besides, the hepatocyte CLint in data set [3] was < 3 µL/min/1e6 cells.
On to `CC(Nc1cc(Cl)cc(Cl)c1)c1cc(C(=O)N(C)C)cc2c(=O)cc(N3CCOCC3)oc12` (racemic), for which the IC50 came to 0.017 µM in [8]; 0.63 µM in data set [1]; 1.9 µM in [2]; 0.01 µM in data set [9]; 0.052 µM in [4]; 0.11 µM in data set [5]. In data set [7], the logD was 3.2. Further, the hepatocyte CLint in data set [3] came out at 18 µL/min/1e6 cells.
Regarding `CCN(C)C(=O)c1cc(C(C)Nc2cc(F)cc(F)c2)c2oc(N3CCOCC3)cc(=O)c2c1` (racemic), the IC50 in data set [8] was found to be 0.007 µM; in data set [1], 0.93 µM; in [2] it was 2.1 µM; in data set [9], 0.008 µM; in data set [4], 0.059 µM; in [5] it was 0.11 µM. Moreover, the logD in data set [7] was 2.5. Also, the hepatocyte CLint in [3] was determined as 5 µL/min/1e6 cells.
Take `COCCN(C)C(=O)c1cc(C(C)Nc2cc(F)cc(F)c2)c2oc(N3CCOCC3)cc(=O)c2c1` (racemic): the concentration for half-maximal inhibition (IC50) is 2.6 µM in data set [1]; 2.6 µM in data set [2]; 0.011 µM in data set [9]; 0.16 µM in data set [4]; 0.29 µM in data set [5]. This molecule showed a logD in data set [7] of 2.2. The hepatocyte CLint in data set [3] stood at 6 µL/min/1e6 cells.
Take `CCN(CC)C(=O)c1cc(C(C)Nc2cc(F)cc(F)c2)c2oc(N3CCOCC3)cc(=O)c2c1` (racemic): the half-maximal inhibitory concentration (IC50) in [8] was 0.016 µM; in data set [1] it was 1.2 µM; in data set [2], 3.2 µM; in [9], 0.01 µM; in [4], 0.071 µM; in data set [5] it was 0.15 µM. In data set [7], this molecule registered a logD of 3.2. Moreover, in data set [3], the hepatocyte CLint was 17 µL/min/1e6 cells.
`CC(Nc1cc(F)cc(F)c1)c1cc(C(=O)N2CCCCC2)cc2c(=O)cc(N3CCOCC3)oc12` (racemic): the IC50 in data set [8] is 0.014 µM; in data set [1], 1 µM; in data set [2], 3.1 µM; in [9], 0.012 µM; in data set [4], 0.059 µM; in data set [5], 0.2 µM. This molecule yielded a logD in data set [7] of 3.1. Also, the hepatocyte CLint in data set [3] turned out to be 21 µL/min/1e6 cells.
As to `CCNC(=O)c1cc(C(C)Nc2cc(F)cc(F)c2)c2oc(N3CCOCC3)cc(=O)c2c1` (racemic), the IC50 in data set [8] amounted to 0.014 µM; in data set [1] it was 0.71 µM; in data set [2], 2.9 µM; in data set [9], 0.009 µM; in [4], 0.044 µM; in data set [5] it was 0.059 µM. This molecule also returned a pH-dependent lipophilicity (logD) in data set [7] of 3.1. For the same molecule, the hepatocyte CLint in data set [3] was < 4 µL/min/1e6 cells.
Take `CC(c1cc(C(=O)N2CCCC2)cc2c(=O)cc(N3CCOCC3)oc12)N(C)c1cc(F)cc(F)c1` (racemic): the IC50 in data set [8] was found to be 0.1 µM; in data set [1] it was 3.5 µM; in data set [2] it was 5.9 µM; in [9], 0.013 µM; in [4], 0.12 µM; in data set [5], 0.51 µM. In data set [7], the logD amounted to 3.1. For the same molecule, the hepatocyte CLint in data set [3] stood at 12 µL/min/1e6 cells.
